Test results reported in a melting point compilation (Tetko et al.).

SMILES | melting point [°C]
COC(=O)c1c(C)cc(=O)oc1C | 66 to 70
COc1ccc(C(=O)Cl)cc1OC1CCCC1 | 46 to 47
CC1(C)CCC(C)(C)C1 | -88.4
C/C(=N/NC(N)=O)C(=O)Nc1ccc(Br)cc1 | 243 to 245
Nc1cnc(N)c(Br)c1 | 117 to 122
CCCCCCCCCCCCCCCCN | 46.8
CCOC(=O)Nc1ccc2c(c1)N(C(=O)CCN1CCOCC1)c1ccccc1S2 | 156
CC1(C)OC(=O)C(=Cc2ccc(-c3cccc([N+](=O)[O-])c3)o2)C(=O)O1 | 179
NC(C(=O)O)(c1ccccc1)C1CCC1 (stereo not given) | 256 to 258
c1ccc(C2=NNCC2)cc1 | 45.8
N=C(N)NCC1COc2ccccc2O1 (stereo not given) | 164
CC1(C(=O)O)CC2C=CC1C2 (stereo not given) | 80
N#Cc1ccc(OCc2ccccc2)cc1 | 97
O=C(O)C(F)(F)C(F)(F)C(F)(F)C(=O)O | 94.5
CC(CCC(=O)O)C1CCC2C3C(=O)C(Br)C4CC(C(=O)O)CCC4(C)C3CC(C(=O)O)C12C (stereo not given) | 229 to 230
NC(C(=O)O)c1ccccc1 (stereo not given) | 302
c1ccc(-c2ccncc2)cc1 | 77.5
COc1ccc(O)c2ccccc12 | 129
CC(C)(C)c1ccc(C2CCC3(CC2)Cc2ccc(OS(=O)(=O)C(F)(F)F)cc2C3)cc1 (stereo not given) | 122 to 124
CC12CCC(C(C(=O)Oc3ccccc3)C1)C2(C)C (stereo not given) | 41
CC(C)(C)OC(=O)N[C@H](CC(=O)O)Cc1ccncc1 | 142
CC(C)(C)C(O)C(Oc1ccc(-c2ccccc2)cc1)n1cncn1 (single isomer, unassigned; stereoisomer a) | 139
CC1C(=O)NC(=O)C1(C)C (stereo not given) | 117 to 122
O=C(O)c1cccc(-c2cncnc2)c1 | 244 to 245
S=C(NC1CCCCC1)C(=S)NC1CCCCC1 | 150 to 152

SMILES | melting point [°C]
CC1(C)OC2C(=O)OC(CBr)C2O1 (stereo not given) | 85 to 89
Nc1ncc(Br)cn1 | 239 to 244
CC(OCC(=O)c1ccccc1)=C(C#N)c1ccccc1 | 111
CC1(C)C(=O)NC1c1ccccc1 (stereo not given) | 150
COc1ccc(/C=C(\C#N)c2nc(-c3ccco3)cs2)cc1 | 109
C#CCC1(CC#C)C(=O)OC(C)(C)OC1=O | 135 to 137
NCCP(=O)(O)O | 296
Cn1nc(C(F)(F)F)c(-c2ccccc2)c1N | 85 to 89
NCCCCCCC(=O)O | 195
Cn1c(/C(C#N)=N/Nc2ccc(Cl)cc2Cl)nc2ccccc21 | 160
CC(=O)N1C(C(=O)O)Cc2c([nH]c3ccccc23)C1(C)C (stereo not given) | 160
O=C(O)COc1ccc(Cl)c(Cl)c1 | 139
OCC(O)C(O)C(O)C(O)CO (stereo not given) | 190
O=C(NC1CCCCC1)C(C(F)(F)F)C(F)(F)F | 190 to 192
CN(C)c1ccc(P(=O)(c2ccc(N(C)C)cc2)c2ccc(N(C)C)cc2)cc1 | 275 to 280
CC1=C(C)C(C(C)C)C=C1Cc1ccccc1 (stereo not given) | 54
COc1ccc(C(=O)O)cc1I | 240
CC(C)(C)C(O)C(=Cc1ccc(Cl)cc1Cl)n1cncn1 (stereo not given) | 148 to 149
CC(C)(C)C(=O)Nc1ccc2nn(C3CCCC3)nc2c1 | 136
O=C(O)C(O)(c1ccccc1Cl)c1ccccc1Cl | 162
c1cc2c3c(cccc3c1)CNC2 | 99
CC(C)CCOC(=O)C=Cc1ccc(C=CC(=O)OCCC(C)C)c([N+](=O)[O-])c1 | 93 to 94
CC(=O)Oc1ccccc1C(=O)Oc1ccccc1 | 96
CCOc1ccc(-c2nnc3n2NC(c2ccccc2OC)S3)cc1 (stereo not given) | 194
CC(=CC=Cc1ccccc1)C(=O)OC(=O)C(C)=CC=Cc1ccccc1 | 112 to 113

SMILES | melting point [°C]
CN(C)c1ccc(N=Nc2ccc(N)cc2)cc1 | 189
CC(=O)N1CCc2cc(S(=O)(=O)Cl)ccc21 | 172 to 174
COC(=O)c1ccc(OC)nc1 | 51
Oc1ccc2c(c1)C13CCCCC1C(C2)N(CC1CC1)CC3 (stereo not given) | 188
CCC(/C(=N/Nc1ccc([N+](=O)[O-])cc1[N+](=O)[O-])c1ccc(OC)cc1)C1CCCCC1 (stereo not given) | 200 to 201
CCN=C=S | -5.9
CCCCCOc1ccc(/N=N/c2ccc(CCCC)cc2)cc1 | 40.5 to 43
CN(C)CCOc1ccc(C(=C(CCCl)c2ccccc2)c2ccccc2)cc1 | 108
C=C(C)C(=C)C | -76
COc1cc2nnc(/C=C/C(C)=O)c(-c3ccc(C)o3)c2cc1OC | 209 to 210
O=C(O)CC(O)(c1ccccc1)c1ccccc1 | 210
ClC(Cl)(Cl)C(Cl)(Cl)Cl | 187
ON=Cc1ccco1 | 78 to 80
O=C(O)c1ccc(N2C(=O)C3ON=C(C(=O)c4ccc(Cl)cc4)C3C2=O)cc1 (stereo not given) | 143
Nc1ccc(Br)cn1 | 138
CCCCCCC(N)C(=O)O (stereo not given) | 270
Cc1ccc(-c2onc(C(=O)c3ccc(Cl)cc3)c2S(=O)(=O)c2ccccc2)cc1 | 149
O=[N+]([O-])c1ccc(-n2cc[nH]c2=S)cc1 | 232 to 233
CN[C@@H](Cc1ccc(O)cc1)C(=O)O | 293
COC(=O)c1ccccc1[N+](=O)[O-] | -13
COc1ccc(CCN)cc1OC | 12 to 15
CCCC(=O)c1c(C)cc(C)c(C2CC(=O)C(C(CC)=NOCC)=C(O)C2)c1C (stereo not given) | 80.8
CCOP(=S)(OCC)Oc1ccc2c3c(c(=O)oc2c1)CCCC3 | 88.2
O=C1c2ccc(O)cc2C(=O)c2cc(O)ccc21 | 354
C=C(C(=O)OC1CC(C)=CCCC(CO)=CC2OC(=O)C(=C)C21)C(O)CO (stereo not given) | 143

SMILES | melting point [°C]
C=CC(O)COS(=O)(=O)c1ccc(C)cc1 (stereo not given) | 57 to 63
CN=C(N)c1cc(C(C)(C)C)c(O)c(C(C)(C)C)c1 | 280 to 281
CC(C)C(=O)C(=O)O | 31.5
Cc1nc(-c2cnccn2)sc1C(=O)Cl | 101
CC12CCC3C(C(=O)CC4CC(O)CCC43C)C1CCC2=O (stereo not given) | 199 to 200
C=C(C)CCCCCCCCCCCCCCCC | 14
CCNc1nc2c(cc1C(=O)OC)c(=O)oc1ccccc12 | 210
O=C(O)c1cc2ccsc2s1 | 236
CC(Cl)C(C)(C)C (stereo not given) | -1
O=C1OC(OC(=O)C(F)(F)F)c2ccccc21 (stereo not given) | 58
Ic1cccc(-c2ccccc2)c1 | 26.5
O=Cc1c[nH]c2cccc(Br)c12 | 179 to 180
Nc1ccc(Cl)c(C(F)(F)F)c1 | 37
CN(C)c1nncc(-c2cnnc(N(C)C)n2)n1 | 224
CCOC(C(=O)c1ccccc1)c1ccccc1 (stereo not given) | 62
Cc1cc(C)c(NC(=O)C(Br)C(C)(C)C)c(C)c1 (stereo not given) | 185 to 188
O=C1N(c2ccccc2)C(=O)[C@]2(Cl)C=C(c3ccccc3)[C@]12Cl | 152
O=c1[nH]c(=O)n(C2CC(O)C(CO)O2)cc1I (stereo not given) | 263
Cc1ccc(C(=O)c2csc(S(N)(=O)=O)c2)cc1 | 176
CCC(C)Cl (stereo not given) | -140
CCOCCOCC | -74
Nc1nc2ccc([N+](=O)[O-])cc2s1 | 247 to 249
O=C1OC(C(Cl)(Cl)Cl)Cc2ccccc21 (stereo not given) | 119
COC(=O)c1c(OC)c(OC)c(OC)c(C(=O)OC)c1C(=O)OC | 84 to 85
Brc1cccnc1Br | 59

SMILES | melting point [°C]
CC(OC(=O)c1ccc([N+](=O)[O-])cc1)c1cccc(C(C)OC(=O)c2ccc([N+](=O)[O-])cc2)c1 (stereo not given) | 139 to 145
Brc1ccc(N(c2ccc(Br)cc2)c2ccc(Br)cc2)cc1 | 142
C=C1C(=O)C23C4CC5C(C)(C)CCC(O)C5(C(OC)O4)C2C(O)CC1C3O (stereo not given) | 261
CCCCCCCCCCCCCC1CCCCC1 | 18.5
CCCCNCC(O)c1ccc(O)cc1 (stereo not given) | 124
Cc1cc(C(F)(F)F)c(C#N)c(=O)[nH]1 | 233 to 235
O=[N+]([O-])c1c(O)cc(O)cc1O | 189
CNCCCC12CCC(c3ccccc31)c1ccccc12 | 92
N#Cc1ccc2c(c1)[N+]([O-])=C(c1cccc(C3=[N+]([O-])c4cc(C#N)ccc4C3=O)c1)C2=O | 270 to 320
CCNc1nc(NC(C)(C)C)nc(OC)n1 | 124
CCCCCCCCCCCCCCCCCC(=O)OCCCCCCCCCCCCCCCC | 57
OCC(F)(F)C(F)(F)C(F)(F)C(F)(F)C(F)(F)C(F)(F)C(F)(F)C(F)(F)CO | 132 to 137
CC1=C(C(=O)OCc2ccccc2)C(c2ccco2)NC(=O)N1 (stereo not given) | 195
CCCC(C)c1ccccc1 (stereo not given) | -70
O=C(O)c1ccccc1N/N=C1/C(=O)N(c2ccccc2)N=C1C(F)(F)F | 139
CC(CCC(=O)O)n1nnc2ccccc21 (stereo not given) | 86
C#CC1(O)CCC2C3CCC4CC5(CCC4(C)C3CCC21C)OCCO5 (stereo not given) | 197 to 199
CC(=C(C#N)C#N)c1ccc(Cl)cc1 | 93
Nc1nn2c(C(F)(F)F)cc(=O)[nH]c2c1/N=N/c1ccc(S(=O)(=O)O)cc1 | 292
N#Cc1ccccc1-n1ccnc1 | 148 to 151
NCc1cccc2c(Br)cccc12 | 138 to 139
CCC1(CCC(C)C)C(=O)NC(=O)NC1=O | 156
O=C(Cl)c1ccsc1Br | 61 to 62
Clc1ccc(Cc2c(N=Cc3ccc(OCc4ccccc4)cc3)n[nH]c2N=Cc2ccc(OCc3ccccc3)cc2)cc1 | 145 to 147
c1ccc(-c2nc3ccccc3[nH]2)cc1 | 293 to 296
